Reference: BindingDB's records for doi:10.1021/acs.jmedchem.3c01130 (University of Toledo College of Medicine and Life Sciences, 2023)

Target: Transcription factor Sp1 (Homo sapiens, UniProt P08047)
Assay: Inhibition of human SP1 transfected in PC-3 cells by renilla luciferase reporter gene assay

Transcription factor Sp1, sequence (P08047 whole entry): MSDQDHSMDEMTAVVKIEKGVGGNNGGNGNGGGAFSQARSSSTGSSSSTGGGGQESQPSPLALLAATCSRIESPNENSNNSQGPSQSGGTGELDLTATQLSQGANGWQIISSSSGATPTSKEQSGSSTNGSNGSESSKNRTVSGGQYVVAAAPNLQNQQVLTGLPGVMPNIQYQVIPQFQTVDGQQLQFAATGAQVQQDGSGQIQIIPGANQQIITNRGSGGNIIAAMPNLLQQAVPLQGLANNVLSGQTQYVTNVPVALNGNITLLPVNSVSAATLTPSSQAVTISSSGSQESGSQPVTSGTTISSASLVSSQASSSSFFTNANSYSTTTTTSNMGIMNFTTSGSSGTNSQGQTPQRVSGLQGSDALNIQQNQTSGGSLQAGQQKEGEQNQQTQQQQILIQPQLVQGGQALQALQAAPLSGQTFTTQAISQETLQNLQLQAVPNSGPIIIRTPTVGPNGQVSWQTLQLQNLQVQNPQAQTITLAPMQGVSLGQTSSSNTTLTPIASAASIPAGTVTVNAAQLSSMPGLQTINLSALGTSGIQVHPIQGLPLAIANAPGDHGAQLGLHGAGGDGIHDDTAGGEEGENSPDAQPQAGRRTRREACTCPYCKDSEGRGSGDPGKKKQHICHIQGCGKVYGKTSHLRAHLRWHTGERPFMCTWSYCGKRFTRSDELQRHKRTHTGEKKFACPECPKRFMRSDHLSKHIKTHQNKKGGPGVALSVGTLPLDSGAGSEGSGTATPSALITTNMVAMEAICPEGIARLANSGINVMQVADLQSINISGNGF

COCC[n+]1c2c(n(Cc3cnccn3)c1C)C(=O)c1ccccc1C2=O [Sepantronium Bromide]
IC50: 8 nM
